According to US20240277851A1, “siRNA DELIVERY VECTOR” (COUNCIL OF SCIENTIFIC & INDUSTRIAL RESEARCH, priority 2021, published 2024):
One block for each molecule: values may come before it.

Columns and labels:
siRNA = assay: Agarose gel electrophoresis retardation assay (siRNA binding); details: earlier findings, FIG. 2D; ratios 1:1 to 7:1
Method: Gel electrophoresis was performed with agarose gel (1.5% w/v) in tris-acetate-EDTA buffer (40 mM) with one drop of ethidium bromide added (concentration of EtBr stock solution: 0.625 mg/ml in H2O), at 100 V for 30 min. The siRNA lipoplexes were prepared by complexing siRNA with Mito-Esc, Mito-isoscopoletin and octyl TPP cation at described P^+/P^− ratios. The samples were incubated for 30 min at room temperature prior to addition into a well. The siRNA bands were visualized under UV illumination at 365 nm.
Mito-Esc nanoparticle solutions were prepared at various concentrations according to the desired final P+:P− charge ratio. Twenty μL solution of the Mito-Esc/siRNA complex was prepared to maintain a constant amount of siRNA in each solution (1 μg in 10 μL), and varying the amount of Mito-Esc according to the P+:P− charge ratio. The prepared mixtures were gently vortexed for 5 min. and incubated for 30 min at room temperature for complex formation.
The efficiency of Mito-Esc to bind siRNA was checked by agarose gel electrophoresis. Also, in order to assess the importance of hydrogen bonding in forming the stable siRNA complexes, Mito-isoscopoletin was synthesized by protecting the dihydroxy group with methyl group. Octyl TPP cation was used as a negative control.

MDA-MB-231 cells = assay: Intracellular delivery of Cy-5 siRNA by confocal imaging, MDA-MB-231; assay type: cell-based; details: MDA-MB-231, Cy-5 siRNA 40 nM, 24 h
Method: (§1) FIG. 5: Detection of intracellular delivery of Cy-5 siRNA by Mito-Esc using confocal imaging. MDA-MB-231 cells were transfected with Cy-5 labelled siRNA (40 nM) with indicated delivery systems for 24 h. Transfection efficacy was evaluated using Confocal Microscopy. Cy-5 fluorescence in the cytosol is shown in blue color (Scale bar 10X). Briefly, MDA-MB-231 cells were seeded on a coverslip in 12-well plates at a density of 3×10^4 cells per well in 1 mL complete DMEM and cultured for 12 h. Fluorescent (Cy-5) siRNA was complexed either with lipofectamine-2000 (positive control) or with Mito-Esc (2.5 μM) or parent esculetin (2.5 μM) or with different cationic lipids in serum free DMEM medium for 30 min before addition into the plates. These lipoplexes were added to the cells and incubated for 6 h. After that, cells were washed twice with PBS and fixed with 4% paraformaldehyde for 15 min. Finally, slides were mounted and the cells were imaged using a confocal microscope. Florescent labeled siRNA with Mito-Esc lipoplexes were prepared as described above and incubated with MDA-MB-231 cells for 24 h. The cells were stained by DAPI to stain the nucleus. The cells were mounted and observed under confocal microscope (Olympus, Tokyo, Japan).

MnSOD = MnSOD gene silencing by immunoblotting; assay type: cell-based; details: MDA-MB-231, siMnSOD 40 nM, 48 h
Method: FIG. 4: Mito-Esc/siMnSOD complex by depleting MnSOD levels exacerbates Mito-Esc-induced breast cancer cell death. (A) MDA-MB-231 cells were incubated either with Mito-Esc/siMnSOD (40 nM) complex or with lipofectamine-2000/siMnSOD complex for 48 h and cell viability was measured by trypan blue dye exclusion assay. (B) MDA-MB-231 cells were transfected with siMnSOD (40 nM) with indicated delivery systems for 48 h and MnSOD protein levels were measured by immunoblotting. Parenthesis indicates the relative expression of MnSOD normalized to GAPDH (loading control).
At the end of the treatments, cell pellets were lysed in a RIPA buffer containing protease inhibitor cocktail, phosphatase inhibitor cocktail-2, 3. Proteins were resolved by SDS-PAGE and blotted onto a nitrocellulose membrane and blocked with 5% bovine serum albumin, washed, and incubated with primary antibodies (1:1000) over night at 4° C. The membranes were then washed and incubated for 1 h with anti-rabbit/mouse IgG horseradish peroxidase linked secondary antibodies (1:5000). ECL reagent (Amersham GE) was applied on the membrane prior to developing with a chemiluminescent system (Bio-Rad).
Cells were cultured in 12-well plates at a density of 3×10^4 cells per well (containing a glass coverslip the day before use). […]

[1] = tested on: MDA-MB-231 breast cancer cells; assay: Trypan blue dye exclusion cell viability, MDA-MB-231; assay type: cell-based; details: MDA-MB-231, 24 h and 48 h, FIG. 1A
Method: FIG. 1: Mito-Esc dose- and time-dependently induces breast cancer cell death without affecting normal cell viability. (A) MDA-MB-231 breast cancer cells were treated with various concentrations of Mito-Esc (1.25-7.5 μM). Cell viability was measured by trypan blue dye exclusion assay at 24 h and 48 h. (B) Same as A, except that cells were treated with parent Esc (5-50 μM). (C) Same as A, except that MCF10A (normal mammary epithelial) cells were treated with Mito-Esc (5-50 μM).
MDA-MB-231 (a Triple negative breast cancer cell line, ATCC) and MCF-10A cells (normal mammary epithelial cells, ATCC) were grown in Dulbecco's Modified Eagle's medium (DMEM) containing 10% FBS, 1% (v/v) Sodium Pyruvate (100 mM), Sodium bicarbonate (26 mM), L-glutamine (4 mM), penicillin (100 units/ml), and streptomycin (100 μg/ml). Cells were maintained in an incubator at 37° C. in a humidified atmosphere of 5% CO2 and 95% air.
To evaluate cytotoxicity of the Mito-Esc or Mito-Esc lipoplexes with siMnSOD, a trypan blue dye exclusion assay was used. Briefly, cells were seeded in a 12-well plate at a density of 3×10^4 cells per well and cultured overnight before transfection. […] The cell suspension (10 μl) was mixed with an equal amount of trypan blue and counted using an automated cell counter (Countess, Life Technologies). […]

[2] = tested on: HeLa (cervical) cancer cells; assay: Sulforhodamine B cytotoxicity, HeLa; assay type: cell-based; details: 24 h
Method: (§2) Cytotoxicity of Mito-Esc on different cancer cell lines HeLa (cervical), HepG2 (liver), MCF-7 (ER+ve breast), A549 (lung), DU-145 (prostate) cancer cells and MCF-10A (normal mammary epithelial cells) were determined by treating with Mito-Esc (0.5-100 μM) for 24 h and cell viability was measured by Sulforhodamine B assay.

[3] = tested on: HepG2 (liver) cancer cells; assay: Sulforhodamine B cytotoxicity, HepG2; assay type: cell-based; details: HepG2, 24 h
Method: as §2

[4] = tested on: MCF-7 (ER+ve breast) cancer cells; assay: Sulforhodamine B cytotoxicity, MCF-7; assay type: cell-based; details: MCF-7, 24 h
Method: as §2

A549 (lung) cancer cells = assay: Sulforhodamine B cytotoxicity, A549; assay type: cell-based; details: A549, 24 h
Method: as §2

[5] = tested on: DU-145 (prostate) cancer cells; assay: Sulforhodamine B cytotoxicity, DU-145; assay type: cell-based; details: DU-145, 24 h
Method: as §2

[6] = tested on: MCF-10A (normal mammary epithelial cells); assay: Sulforhodamine B cytotoxicity, MCF-10A; assay type: cell-based; details: 24 h
Method: as §2

[7] = Size and surface charge of Mito-Esc nanoparticles (DLS, zeta potential); assay type: physicochemical; details: aqueous solution (1% EtOH)
Method: The size (hydrodynamic diameter) and the surface charge (zeta potentials) of a Mito-Esc nanoparticle were measured by photon correlation spectroscopy and the electrophoretic mobility on a Zetasizer 3000HSA (Malvern, UK). The size was measured in deionized water with a sample refractive index of 1.33, a viscosity of 0.88 cP and a temperature of 25° C. The size was measured in triplicate. The zeta potential was measured using the following parameters: viscosity, 0.88 cP; dielectric constant, 78.5, and temperature, 25° C.
(§3) The self-assembling properties of Mito-Esc were explored. The particle size of an aqueous solution (1% EtOH) of Mito-Esc was measured using Dynamic light scattering (DLS). Mito-Esc formed nanosized particles of size 166±30 nm and surface charge of 33±0.4 mV (FIG. 2A). The size and morphology of self-assembled nanoparticles of Mito-Esc was investigated by scanning and by transmission electron microscopy respectively. Mito-Esc formed spherical shaped nanoparticles of <200 nm (FIGS. 2B & 2C).

[8] = Scanning and transmission electron microscopy of nanoparticles; assay type: physicochemical; details: spherical shaped nanoparticles
Method: Transmission electron microscopy studies were performed on a Tecnai T12 microscope (FEI) at 120 kV, and images were taken using an SIS CCD camera; Samples were negatively stained with ammonium molybdate on 200 or 400 mesh carbon-coated copper grids (Ted Pella, Inc.). Before recording micrographs, the grids were air dried.
Field emission scanning electron microscopic (FESEM) analysis of a Mito-Esc nanoparticle was performed on a Carl Zeiss SIGMA HD field-emission scanning electron microscope.
as §3

MCF-10A cells = assay: Intracellular delivery of Cy-5 siRNA by confocal imaging, MCF-10A; assay type: cell-based
Method: FIG. 6: Comparison of intracellular delivery of Cy-5 siRNA using confocal imaging. MCF-10A cells were transfected with Cy-5 labelled siRNA using different delivery mechanisms. Transfection efficacy was evaluated using Confocal Microscopy. Cy-5 fluorescence in the cytosol is shown in blue.
as §1, with “Briefly,” for “FIG. 5: Detection of intracellular delivery of Cy-5 siRNA by Mito-Esc using confocal imaging. MDA-MB-231 cells were transfected with Cy-5 labelled siRNA (40 nM) with indicated delivery systems for 24 h. Transfection efficacy was evaluated using Confocal Microscopy. Cy-5 fluorescence in the cytosol is shown in blue color (Scale bar 10X). Briefly,”

[9] = tested on: MDA-MB-231 cells in mammary fat pad; assay: In-vivo orthotopic MDA-MB-231 tumor model; details: SCID mice, i.p. 3 and 6 mg/kg for two weeks
Method: Inoculation of MDA-MB-231 cells into mammary fat pad of SCID mice: 6-week-old female SCID mice were used for the experiment. Initially, 10 nM Qtracker labeling solution (Qtracker Cell Labeling Kit, Invitrogen Q25071MP) was prepared by pre-mixing 10 μL each of Component A and Component B in a 1.5 mL microcentrifuge tube and incubated for 5 minutes at room temperature. This mixture was added to 0.2 mL of fresh complete growth medium and vortexed for 30 seconds and added to a 75-cm2 tissue culture flask containing MDA-MB-231 cells and incubated in a 37° C., 5% CO2 incubator overnight. Sub-confluent labeled cells were harvested and counted.
Cells (1×10^6) were suspended in 0.1 ml of serum free medium. To this 0.1 ml of matrigel was added and gently mixed to get a uniform cell suspension. The SCID mice were anesthetized with ketamine/xylazine cocktail (50 μL/20 g mice) and each mouse was implanted with above mentioned 1×10^6 Q-Tracker labelled MDA-MB-231 cells into the 4th pair of mammary fat pad orthotopically and sutured the fat pad after the inoculation of cells. The incision site was dressed with povidone-iodine to prevent infection every day until the incision healed. Mice were checked to see development of tumors and treatment began once the tumors reached a volume of ≥300 mm^3. […] On the day of sacrifice, tumor volumes were measured using Vernier calipers. […]

P+/P− charge ratios at which siRNA is bound (migration retarded) (siRNA): did not bind the siRNA
Molecule: (8-(6,7-dimethoxy-2-oxo-2H-chromen-4-yl)octyl)triphenylphosphonium [Mito-isoscopoletin]
intracellular delivery of Cy-5 siRNA (MDA-MB-231 cells): failed to deliver the Cy-5 siRNA intracellularly

Molecule: O=c1ccc2cc(O)c(O)cc2o1 [parent esculetin, esculetin]
MnSOD protein levels (MnSOD): neither parent esculetin nor octyl TPP cation complexes were able to decrease MnSOD expression | intracellular delivery of Cy-5 siRNA (MDA-MB-231 cells): failed to deliver the Cy-5 siRNA intracellularly

Molecule: O=c1cc(CCCCCCCC[P+](c2ccccc2)(c2ccccc2)c2ccccc2)c2cc(O)c(O)cc2o1 [Mito-Esc, (8-(6,7-dihydroxy-2-oxo-2H-chromen-4-yl)octyl) triphenylphosphonium]
concentrations causing dose-dependent cell death [1]: 1.5 to 7.5 µM | IC50 [2]: 4.9 µM | IC50 [3]: 10 µM | IC50 [4]: 4.8 µM | IC50 (A549 (lung) cancer cells): 1800 nM | IC50 [5]: 15.5 µM | IC50 [6]: > 100 µM | particle size (DLS) [7]: 166±30 nm | surface charge [7]: 33±0.4 mV | nanoparticle size by SEM/TEM [8]: < 200 nm | intracellular delivery of Cy-5 siRNA (MDA-MB-231 cells): significantly caused the intracellular delivery of Cy-5 siRNA | efficiency of siRNA delivery (MCF-10A cells): lower than Lipofectamine-2000 | breast cancer progression (tumor volume, weight) [9]: regress breast cancer progression
